From PubChem BioAssay (NCI)
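Tested at 5 concentrations; 48 h exposure; 96-well plates; endpoints linearly interpolated, else capped at highest concentration. Abbreviation: GI50, concentration required for 50% inhibition of growth. Definition used: TGI = concentration required for complete inhibition of growth.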

What was measured:
Experiment in all cases: DTP human tumour cell line panel, 48 h
786-0 renal = test system: 786-0 renal
A498 renal = test system: A498 renal
A549 NSCLC = test system: A549 NSCLC
ACHN renal = test system: ACHN renal
CAKI-1 renal = test system: CAKI-1 renal
CCRF-CEM leukemia = test system: CCRF-CEM leukemia
COLO 205 colon = test system: COLO 205 colon
DLD-1 colon = test system: DLD-1 colon
DMS 114 small cell lung = test system: DMS 114 small cell lung
DMS 273 small cell lung = test system: DMS 273 small cell lung
EKVX NSCLC = test system: EKVX NSCLC
HCC-2998 colon = test system: HCC-2998 colon
HCT-15 colon = test system: HCT-15 colon
HL-60(TB) leukemia = test system: HL-60(TB) leukemia
HOP-18 NSCLC = test system: HOP-18 NSCLC
HOP-62 NSCLC = test system: HOP-62 NSCLC
HT29 colon = test system: HT29 colon
IGROV1 ovarian = test system: IGROV1 ovarian
K-562 leukemia = test system: K-562 leukemia
KM12 colon = test system: KM12 colon
KM20L2 colon = test system: KM20L2 colon
LOX IMVI melanoma = test system: LOX IMVI melanoma
LXFL 529 NSCLC = test system: LXFL 529 NSCLC
M14 melanoma = test system: M14 melanoma
M19-MEL melanoma = test system: M19-MEL melanoma
MALME-3M melanoma = test system: MALME-3M melanoma
MOLT-4 leukemia = test system: MOLT-4 leukemia
NCI-H23 lung = test system: NCI-H23 lung
NCI-H460 lung = test system: NCI-H460 lung
OVCAR-3 ovarian = test system: OVCAR-3 ovarian
OVCAR-4 ovarian = test system: OVCAR-4 ovarian
OVCAR-5 ovarian = test system: OVCAR-5 ovarian
OVCAR-8 ovarian = test system: OVCAR-8 ovarian
RPMI-8226 leukemia = test system: RPMI-8226 leukemia
RXF 393 renal = test system: RXF 393 renal
SF-268 CNS = test system: SF-268 CNS
SF-295 CNS = test system: SF-295 CNS
SF-539 CNS = test system: SF-539 CNS
SK-MEL-2 melanoma = test system: SK-MEL-2 melanoma
SK-MEL-28 melanoma = test system: SK-MEL-28 melanoma
SK-MEL-5 melanoma = test system: SK-MEL-5 melanoma
SK-OV-3 ovarian = test system: SK-OV-3 ovarian
SN12C renal = test system: SN12C renal
SNB-19 CNS = test system: SNB-19 CNS
SNB-75 CNS = test system: SNB-75 CNS
SNB-78 CNS = test system: SNB-78 CNS
SW-620 colon = test system: SW-620 colon
TK-10 renal = test system: TK-10 renal
U251 CNS = test system: U251 CNS
UACC-257 melanoma = test system: UACC-257 melanoma
UACC-62 melanoma = test system: UACC-62 melanoma
UO-31 renal = test system: UO-31 renal
XF 498 CNS = test system: XF 498 CNS
HCT-116 colon = test system: HCT-116 colon
NCI-H522 lung = test system: NCI-H522 lung

## [C-]#[O+].[C-]#[O+].[C-]#[O+].[C-]#[O+].[O-]C(c1ccccc1[PH+]1OC(C(F)(F)F)(C(F)(F)F)c2ccccc21)(C(F)(F)F)C(F)(F)F.[Re] (centres undefined)
786-0 renal
  GI50: 4.26 µM
  TGI: 15.3 µM
A498 renal
  GI50: 2.5 µM
  TGI: 8.19 µM
A549 NSCLC
  GI50: 4.56 µM
  TGI: 19.2 µM
ACHN renal
  GI50: 3.75 µM
  TGI: 12.9 µM
CAKI-1 renal
  GI50: 5.45 µM
  TGI: 20.8 µM
CCRF-CEM leukemia
  GI50: 2.39 µM
  TGI: 5.83 µM
COLO 205 colon
  GI50: 2.32 µM
  TGI: 5.74 µM
DLD-1 colon
  GI50: 5.1 µM
  TGI: 21.1 µM
DMS 114 small cell lung
  GI50: 2.78 µM
  TGI: 8.82 µM
DMS 273 small cell lung
  GI50: 2.93 µM
  TGI: 9.78 µM
EKVX NSCLC
  GI50: 7.51 µM
  TGI: 25.4 µM
HCC-2998 colon
  GI50: 5.11 µM
  TGI: 18.3 µM
HCT-15 colon
  GI50: 5.72 µM
  TGI: 20.6 µM
HL-60(TB) leukemia
  GI50: 2.81 µM
  TGI: 11.4 µM
HOP-18 NSCLC
  GI50: 7.89 µM
  TGI: 21.1 µM
HOP-62 NSCLC
  GI50: 7.54 µM
  TGI: 24 µM
HT29 colon
  GI50: 3.6 µM
  TGI: 12.2 µM
IGROV1 ovarian
  GI50: 3.46 µM
  TGI: 14.8 µM
K-562 leukemia
  GI50: 2.69 µM
  TGI: 11.1 µM
KM12 colon
  GI50: 3.9 µM
  TGI: 12.5 µM
KM20L2 colon
  GI50: 2.2 µM
  TGI: 13.7 µM
LOX IMVI melanoma
  GI50: 2.59 µM
  TGI: 6.2 µM
LXFL 529 NSCLC
  GI50: 2.01 µM
  TGI: 4.26 µM
M14 melanoma
  GI50: 1.99 µM
  TGI: 4.01 µM
M19-MEL melanoma
  GI50: 3.59 µM
  TGI: 14.4 µM
MALME-3M melanoma
  GI50: 2.33 µM
  TGI: 5.07 µM
MOLT-4 leukemia
  GI50: 2.5 µM
  TGI: 6.39 µM
NCI-H23 lung
  GI50: 2.36 µM
  TGI: 5.25 µM
NCI-H460 lung
  GI50: 2.92 µM
  TGI: 8.97 µM
OVCAR-3 ovarian
  GI50: 2.77 µM
  TGI: 7.58 µM
OVCAR-4 ovarian
  GI50: 2.88 µM
  TGI: 8.53 µM
OVCAR-5 ovarian
  GI50: 5 µM
  TGI: 18.6 µM
OVCAR-8 ovarian
  GI50: 3.65 µM
  TGI: 15.6 µM
RPMI-8226 leukemia
  GI50: 2.89 µM
  TGI: 12.5 µM
RXF 393 renal
  GI50: 1.9 µM
  TGI: 4.04 µM
SF-268 CNS
  GI50: 6.18 µM
  TGI: 23.5 µM
SF-295 CNS
  GI50: 4.97 µM
  TGI: 18.3 µM
SF-539 CNS
  GI50: 2.85 µM
  TGI: 8.68 µM
SK-MEL-2 melanoma
  GI50: 4.88 µM
  TGI: 18.2 µM
SK-MEL-28 melanoma
  GI50: 2.56 µM
  TGI: 6.8 µM
SK-MEL-5 melanoma
  GI50: 6.33 µM
  TGI: 20.6 µM
SK-OV-3 ovarian
  GI50: 14.7 µM
  TGI: 30.2 µM
SN12C renal
  GI50: 3.63 µM
  TGI: 13.4 µM
SNB-19 CNS
  GI50: 11.5 µM
  TGI: 33.5 µM
SNB-75 CNS
  GI50: 4.65 µM
  TGI: 15.6 µM
SNB-78 CNS
  GI50: 3.7 µM
  TGI: 19.5 µM
SW-620 colon
  GI50: 3.87 µM
  TGI: 13.5 µM
TK-10 renal
  GI50: 7.26 µM
  TGI: 21.7 µM
U251 CNS
  GI50: 3.05 µM
  TGI: 14.1 µM
UACC-257 melanoma
  GI50: 2.26 µM
  TGI: 4.28 µM
UACC-62 melanoma
  GI50: 2.12 µM
  TGI: 4.92 µM
UO-31 renal
  GI50: 2.58 µM
  TGI: 7.02 µM
XF 498 CNS
  GI50: 2.96 µM
  TGI: 10.3 µM

## O=C1Nc2ccccc2C12CCCC2
786-0 renal
  TGI: > 100 µM
A498 renal
  TGI: > 100 µM
A549 NSCLC
  TGI: > 100 µM
ACHN renal
  TGI: > 100 µM
CAKI-1 renal
  TGI: > 100 µM
CCRF-CEM leukemia
  TGI: > 100 µM
COLO 205 colon
  TGI: > 100 µM
DLD-1 colon
  TGI: > 100 µM
DMS 114 small cell lung
  TGI: > 100 µM
DMS 273 small cell lung
  TGI: > 100 µM
EKVX NSCLC
  TGI: > 100 µM
HCC-2998 colon
  TGI: > 100 µM
HCT-116 colon
  TGI: > 100 µM
HCT-15 colon
  TGI: > 100 µM
HL-60(TB) leukemia
  TGI: > 100 µM
HOP-18 NSCLC
  TGI: > 100 µM
HOP-62 NSCLC
  TGI: > 100 µM
HT29 colon
  TGI: > 100 µM
IGROV1 ovarian
  TGI: > 100 µM
K-562 leukemia
  TGI: > 100 µM
KM12 colon
  TGI: > 100 µM
KM20L2 colon
  TGI: > 100 µM
LXFL 529 NSCLC
  TGI: > 100 µM
M14 melanoma
  TGI: > 100 µM
M19-MEL melanoma
  TGI: > 100 µM
MALME-3M melanoma
  TGI: > 100 µM
MOLT-4 leukemia
  TGI: > 100 µM
NCI-H23 lung
  TGI: > 100 µM
NCI-H460 lung
  TGI: > 100 µM
NCI-H522 lung
  TGI: > 100 µM
OVCAR-3 ovarian
  TGI: > 100 µM
OVCAR-4 ovarian
  TGI: > 100 µM
OVCAR-8 ovarian
  TGI: > 100 µM
RPMI-8226 leukemia
  TGI: > 100 µM
RXF 393 renal
  TGI: > 100 µM
SF-268 CNS
  TGI: > 100 µM
SF-295 CNS
  TGI: > 100 µM
SF-539 CNS
  TGI: > 100 µM
SK-MEL-2 melanoma
  TGI: > 100 µM
SK-MEL-28 melanoma
  TGI: > 100 µM
SK-MEL-5 melanoma
  TGI: > 100 µM
SK-OV-3 ovarian
  TGI: > 100 µM
SN12C renal
  TGI: > 100 µM
SNB-19 CNS
  TGI: > 100 µM
SNB-75 CNS
  TGI: > 100 µM
SNB-78 CNS
  TGI: > 100 µM
SW-620 colon
  TGI: > 100 µM
TK-10 renal
  TGI: > 100 µM
U251 CNS
  TGI: > 100 µM
UACC-257 melanoma
  TGI: > 100 µM
UACC-62 melanoma
  TGI: > 100 µM
UO-31 renal
  TGI: > 100 µM
XF 498 CNS
  TGI: > 100 µM
